Measurements taken from patent US12234257B2, “Triterpene saponin derivative and use thereof” (KOREA INSTITUTE OF SCIENCE AND TECHNOLOGY, priority 2020, dated 2025).
“Also recorded” adds a separate entry of the source.

Tests used:
Format in all cases: cell-based, human
[1] = tested on: GFP-RFP-LC3-II puncta in SH-SY5Y cells; assay: Tandem fluorescent protein quenching assay (RFP-GFP-LC3); conditions: transfected SH-SY5Y cells, AKNS-2 10 μM alone vs control cells
Method: SH-SY5Y cells were cultured in a 24-well plate at a density of 8×10^4 cells/well on a glass cover slip. Transfection was performed in accordance with guidelines of the autophagy tandem RFP-GFP-LC3B kit. After culturing the cells for 24 hours, the cells were treated with an LC3B reagent. After the transfected cells were incubated for 24 hours, 50 nM Wart or 100 nM Baf was administered thereto, and then AKNS-2 (10 μM) was added thereto. The cells were immobilized with 4% paraformaldehyde and permeabilized with 0.1% Triton X100. Nuclei thereof were stained with 4,6-diamidino-2-phenylindole (DAPI, 25 μg/mL). Fluorescent signals were detected using a confocal microscope (Leica, Solms, Germany).

SH-SY5Y cells = assay: MTT assay to measure cell viability; conditions: 24 hours
Method: Cell viability was detected using an MTT assay kit (Z-Cytox). Briefly, the SH-SY5Y cells were seeded on a 96-well plate at a density of 2×10^4 cells/well with 100 μL of a culture medium. After 24 hours, the SH-SY5Y cells were treated with AKNS-2 and/or MPP^+ having desired concentrations to identify cytotoxicity of AKNS-2 and MPP^+. After 24 hours, 10 μL of the MTT reagent was added to each well of the 96-well plate including the cells. Absorbance was measured at 450 nm using a microplate spectrophotometer (BioTek, Vt., USA). […] The next day, absorbance was measured at 1 hour after adding the MTT reagent thereto.

LC3-II = assay: Autophagy induction assay (LC3-II/LC3-I ratio by western blot); conditions: SH-SY5Y cells; for LC3-II expression: treatment with astersaponin I
Method: Protein markers contained in lysates of the SH-SY5Y cells and brain tissue of the mice (SNpc and ST) were measured by western blot analysis. Briefly, after determining a concentration, a protein sample (20 μg) was separated by 8%, 10%, or 15% sodium dodecyl sulfate-polyacrylamide gel electrophoresis (SDS-PAGE). Then, proteins separated on the gel were transferred to a polyvinylidene fluoride (PVDF) membrane for 45 minutes using a Trans-Blot Turbo Transfer System (Bio-Rad, USA). The membrane was washed with tris-buffered saline with 0.1% Tween 20, TBST) for 5 minutes and then blocked by 5% skim milk dissolved in a TBST buffer. The membrane was further incubated with monoclonal primary antibodies derived from rabbits (anti-GAPDH, anti-AMPK, anti-p-AMPK, anti-ULK, anti-p-ULK555, anti-Erk, anti-p-Erk, anti-mTOR, anti-p-mTOR, anti-LC3B, anti-TH, and anti-α-synuclein antibodies). The primary antibodies were diluted in a blocking buffer at a ratio of 1:1000 and incubated overnight at 4° C. On the second day, the membrane was washed with TBST three times (10 minutes each) and incubated at room temperature in a horseradish peroxidase-conjugated goat anti-rabbit IgG secondary antibody (diluted in a blocking buffer at a ratio of 1:2000). After incubating in the secondary antibody for 1 hour, the membrane was washed for 30 minutes. The protein blots on the membrane were developed using an ECL detection kit and visualized using an LAS-4000 mini system (Fujifilm, Japan). The intensity of the protein blots was quantified using Multi Gauge software (Fujifilm, Japan).
To investigate the autophagy inducing effect of A. koraiensis, human neuroblastoma (SH-SY5Y) cells were cultivated in 6-well plates at a density of 8×10^5 cells/well in 2 mL DMEM medium (Gibco) at 37° C. in a humidified atmosphere with 5% CO2. […] The protein expression of LC3-II in cell lysates was measured using western blot analysis. […] The immune blots were visualized using an ECL detection kit and analyzed using a LAS-4000 mini system (Fujifilm).

Structure (SMILES): C[C@@H]1O[C@@H](O[C@@H]2[C@@H](O)[C@H](O[C@@H]3[C@@H](O[C@@H]4OC[C@@H](O)[C@H](O)[C@H]4O)[C@@H](O)[C@H](O[C@H]4[C@H](OC(=O)[C@]56CCC(C)(C)C[C@H]5C5=CC[C@@H]7[C@@]8(C)C[C@H](O)[C@H](O[C@@H]9O[C@H](CO)[C@@H](O)[C@H](O[C@@H]%10OC[C@@H](O)[C@H](O)[C@H]%10O)[C@H]9O)[C@@](C)(CO)[C@@H]8CC[C@@]7(C)[C@]5(C)C[C@H]6O)OC[C@H](O)[C@@H]4O)O[C@H]3C)OC[C@H]2O)[C@H](O)[C@H](O)[C@H]1O [Compound 1, 3-O-β-D-xylopyranosyl-(1→3)-β-D-glucopyranosylpolygalacic acid 28-O-α-L-rhamnopyranosyl-(1→3)-β-D-xylopyranosyl-(1→4)-[β-D-xylopyranosyl-(1→3)]-α-L-rhamnopyranosyl-(1→2)-α-L-arabinopyranosyl ester]
- accumulation of GFP-RFP-LC3-II puncta [1]: more cytoplasmic puncta stained with green and red fluorescence were observed compared to in the control cells
- cell viability damaged by MPP^+ (MTT) (SH-SY5Y cells; AKNS-2 5 μM and 10 μM 1 hour before 2 mM MPP^+): significantly improved cell viability damaged by 2 mM MPP^+; also recorded: significantly enhanced cell viability that had decreased by MPP^+; also recorded: reversed the effects of MPP^+ on cell viability
- cytotoxicity (cell viability, MTT) (SH-SY5Y cells; AKNS-2 alone, up to 40 μM): did not significantly affect cytotoxicity
- LC3-II/LC3-I ratio (LC3-II; 24 hours, 5 μM, 10 μM and 20 μM): increase in the LC3-II/LC3-I ratio in a dose-dependent manner
- LC3-II expression (LC3-II): significantly increasing the expression
- LC3-II expression (LC3-II; listed as astersaponin I): up-regulated LC3-II expression in a dose-dependent manner
